Converted amounts (≈) assume the structure as drawn. Where two headings read alike, the source gives them in different places.
Key:
P388 leukemia = assay: antitumor activity against P388 ascitic leukemia in CDF-1 mice, treatment ip on day 1; assay type: in vivo; details: for T/C % (median survival time: % over untreated controls) / Toxic deaths: ip on day 1; for Toxic deaths: autoptic findings on dead mice; for antitumor activity compared with the parent drugs: P 388 ascitic leukemia, CDF-1 mice, in words
Procedure: The primary screening "in vivo" was carried out in CDF-1 mice bearing P 388 ascitic leukemia (10^6 cells/mouse).
Antitumor activity against P388 leukemia, treatment ip on day 1
^a Median survival time: % over untreated controls
^b Evaluated on the basis of autoptic findings on dead mice.

HeLa cells = assay: colony inhibition test against HeLa cells (treatment for 24 hrs); assay type: cell-based; details: Homo sapiens
[1] = tested on: advanced mammary carcinoma; assay: activity and toxicity against advanced mammary carcinoma in C3H/He mice, iv once a week for four weeks; assay type: in vivo; details: for Toxic deaths: autoptic evaluation; for Tumor growth: evaluated once week after last treatment; for activity at the optimal dose: 6 mg/kg of Doxorubicin, 5.3 mg/kg of IB, in words
Procedure: (§1) The compound IB has been tested in comparison with Doxorubicin against advanced mammary carcinoma spontaneously arising in C3H/He mice. The compounds were administered iv once a week for four weeks.
Activity, toxicity and cardiotoxicity of IB against advanced mammary
(§2) ^1 Experiment was performed in C3H/He mice inoculated s.c. with 20
(§3) × 10^6 mammary carcinoma cells.
(§4) ^2 Treatment iv started when tumor was palpable (once week for four
^3 Evaluated once week after last treatment.
^5 Evaluated on the basis of autoptic

[2] = tested on: miocardial tissue (atrium, ventricle); assay: cardiotoxicity in C3H/He mice bearing mammary carcinoma, semithin sections of miocardial tissue (light microscopy); assay type: in vivo; details: for animals with cardiac lesions (atrial and ventricular level) / severity of the cardiac lesions: mouse, in vivo
Procedure: as §1, §2, §3, §4
^6 Evaluated on semithin section of miocardial tissue (by light

[3] = 6 mg/kg iv once a week for four weeks
[4] = 7.5 mg/kg iv once a week for four weeks
[5] = 2.7 mg/kg iv once a week for four weeks
[6] = 3.8 mg/kg iv once a week for four weeks
[7] = 5.3 mg/kg iv once a week for four weeks

COc1cccc2c1C(=O)c1c(O)c3c(c(O)c1C2=O)C[C@@](O)(C(C)=O)C[C@@H]3O[C@H]1C[C@H](N)[C@H](O)[C@H](C)O1 [Daunorubicin]
T/C % (median survival time: % over untreated controls) (P388 leukemia; dose 2.9 (ng/kg [sic])): 170% | Toxic deaths (P388 leukemia; dose 2.9 (ng/kg [sic])): 0/10 | T/C % (median survival time: % over untreated controls) (P388 leukemia; dose 4.4 (ng/kg [sic])): 170% | Toxic deaths (P388 leukemia; dose 4.4 (ng/kg [sic])): 0/10 | T/C % (median survival time: % over untreated controls) (P388 leukemia; dose 6.6 (ng/kg [sic])): 170% | Toxic deaths (P388 leukemia; dose 6.6 (ng/kg [sic])): 3/10 | IC50 (HeLa cells; HeLa, 24 h, read-out: ID50): 9 ng/mL (≈ 0.0171 µM)

COc1cccc2c1C(=O)c1c(O)c3c(c(O)c1C2=O)C[C@@](O)(C(=O)CO)C[C@@H]3O[C@H]1C[C@H](N)[C@H](O)[C@H](C)O1 [Doxorubicin]
T/C % (median survival time: % over untreated controls) (P388 leukemia; dose 10.0 (ng/kg [sic])): 225% | Toxic deaths (P388 leukemia; dose 10.0 (ng/kg [sic])): 0/10 | T/C % [1, 3]: 138% | Toxic deaths [1, 3]: 0/5 | Tumor growth [1, 3]: 65 | activity at the optimal dose [1]: the same for both compounds | T/C % [1, 4]: 125% | Toxic deaths [1, 4]: 5/5 | Tumor growth [1, 4]: 84 | Cardiotoxicity, Atrium, affected mice (%) [2, 3]: 100% | Cardiotoxicity, Atrium, grade [2, 3]: 1.6 | Cardiotoxicity, Ventricle, affected mice (%) [2, 3]: 100% | Cardiotoxicity, Ventricle, grade [2, 3]: 1.2 | Cardiotoxicity, Atrium, affected mice (%) [2, 4]: 100% | Cardiotoxicity, Atrium, grade [2, 4]: 3.2 | Cardiotoxicity, Ventricle, affected mice (%) [2, 4]: 100% | Cardiotoxicity, Ventricle, grade [2, 4]: 3.6 | animals with cardiac lesions (atrial and ventricular level) [2]: all the animals | severity of the cardiac lesions [2]: high

COc1cccc2c1C(=O)c1c(O)c3c(c(O)c1C2=O)CC(O)(C(C)=O)CC3OC1CC(O)C(N)C(C)O1 (centres unmarked) [IA, 3'-deamino-3'-hydroxy-4'-deoxy-4'-aminodaunorubicin]
antitumor activity compared with the parent drugs (P388 leukemia): more active than the parent drugs | T/C % (median survival time: % over untreated controls) (P388 leukemia; dose 10.0 (ng/kg [sic])): 165% | Toxic deaths (P388 leukemia; dose 10.0 (ng/kg [sic])): 0/10 | T/C % (median survival time: % over untreated controls) (P388 leukemia; dose 15.0 (ng/kg [sic])): 180% | Toxic deaths (P388 leukemia; dose 15.0 (ng/kg [sic])): 0/10 | T/C % (median survival time: % over untreated controls) (P388 leukemia; dose 22.5 (ng/kg [sic])): 200% | Toxic deaths (P388 leukemia; dose 22.5 (ng/kg [sic])): 0/10 | IC50 (HeLa cells; HeLa cells, treatment for 24 hrs, read-out: ID50 (the source's name)): 7 ng/mL (≈ 0.0133 µM)

COc1cccc2c1C(=O)c1c(O)c3c(c(O)c1C2=O)CC(O)(C(=O)CO)CC3OC1CC(O)C(N)C(C)O1 (centres unmarked) [IB, 3'-deamino-3'-hydroxy-4'-deoxy-4'-aminodoxorubicin]
antitumor activity compared with the parent drugs (P388 leukemia): more active than the parent drugs | T/C % (median survival time: % over untreated controls) (P388 leukemia; dose 4.4 (ng/kg [sic])): 220% | Toxic deaths (P388 leukemia; dose 4.4 (ng/kg [sic])): 0/10 | T/C % (median survival time: % over untreated controls) (P388 leukemia; dose 6.6 (ng/kg [sic])): 230% | Toxic deaths (P388 leukemia; dose 6.6 (ng/kg [sic])): 0/10 | T/C % (median survival time: % over untreated controls) (P388 leukemia; dose 10.0 (ng/kg [sic])): 310% | Toxic deaths (P388 leukemia; dose 10.0 (ng/kg [sic])): 0/10 | T/C % (median survival time: % over untreated controls) (P388 leukemia; dose 15.0 (ng/kg [sic])): 215% | Toxic deaths (P388 leukemia; dose 15.0 (ng/kg [sic])): 3/10 | T/C % [1, 5]: 98% | Toxic deaths [1, 5]: 0/5 | Tumor growth [1, 5]: 32 | T/C % [1, 6]: 129% | Toxic deaths [1, 6]: 0/5 | Tumor growth [1, 6]: 34 | T/C % [1, 7]: 148% | Toxic deaths [1, 7]: 1/5 | Tumor growth [1, 7]: 59 | activity at the optimal dose [1]: the same for both compounds | Cardiotoxicity, Atrium, affected mice (%) [2, 5]: 25% | Cardiotoxicity, Atrium, grade [2, 5]: 0.1 | Cardiotoxicity, Ventricle, affected mice (%) [2, 5]: 0% | Cardiotoxicity, Ventricle, grade [2, 5]: 0 | Cardiotoxicity, Atrium, affected mice (%) [2, 6]: 20% | Cardiotoxicity, Atrium, grade [2, 6]: 0.1 | Cardiotoxicity, Ventricle, affected mice (%) [2, 6]: 60% | Cardiotoxicity, Ventricle, grade [2, 6]: 0.3 | Cardiotoxicity, Atrium, affected mice (%) [2, 7]: 40% | Cardiotoxicity, Atrium, grade [2, 7]: 0.2 | Cardiotoxicity, Ventricle, affected mice (%) [2, 7]: 80% | Cardiotoxicity, Ventricle, grade [2, 7]: 0.4 | cardiotoxicity in comparison with Doxorubicin ([2]; in words): drastically reduced in comparison with Doxorubicin | animals with cardiac lesions (atrial and ventricular level) [2]: lower percent of affected mice | severity of the cardiac lesions [2]: lower severity

— patent publication US4684629A, “3'-deamino-3'-hydroxy-4'-deoxy-4'-amino doxorubicin and related daunorubicin” (priority 1985, dated 1987)
